US12642781B2, “Adenomyosis associated infertility and hdac inhibitors” (NADEZHDA REPRODUCTIVE SCIENCE OOD, priority 2020, dated 2026)

Tests used:
[1] = Safety and tolerability of the treatment regimen (safety lab blood tests, adverse events); format: in vivo, women
Protocol: (§1) Intralesional application must start with the lesions located closest to the cavum uteri, in the so-called junctional zone, because these have the strongest influence on fertility. The procedure is performed under short-term intravenous anesthesia to ensure patient comfort and immobility during application; patients report no pain after anesthesia wear off.
The safety lab panel included liver function tests (AST, ALT, LDH), as well as complete blood count.

adenomyosis lesions = assay: Clinical treatment of women with adenomyosis: lesion assessment by 2D/3D ultrasound, MRI and colour Doppler; format: in vivo
Protocol: A 100 mg/ml solution of sodium valproate for injection or infusion was prepared.
This solution is drawn in 5 ml Luer lock syringe and administrated in the lesion(s) through special needle. We have used—OPU needle 18G, with echo tip and length at least 15 cm. The solution was administered in the ultrasound-guided manner in all visible lesions. The access was through the vagina.
as §1
The first oral dose must be taken between 9 h and 16 h after the end of intralesion application in order to achieve a steady state in patient plasma.
Sodium valproate 500 mg prolonged-release tablets were used.
To eliminate operator bias, all TVUS scans of the same patient at baseline and after start of treatment were performed by the same specialist on the same ultrasound machine.
There were tested 37 women with adenomyosis and a history of infertility and/or abortions.

[2] = tested on: adenomyosis associated infertility; assay: Pregnancy outcome of IVF after the treatment regimen; format: in vivo, women
Protocol: Sodium valproate 500 mg prolonged-release tablets were used. […] There were tested 37 women with adenomyosis and a history of infertility and/or abortions. […] One month after End of Treatment, a new IVF cycle is ready to be started, and pregnancies are followed up to full term birth. […] Pregnancy rate was measured and is described below in Table 6: […]

[3] = after the first two months of oral VPA following intralesional VPA administration

SMILES: CCCC(CCC)C(=O)O [VPA, valproic acid]
- patients who reported dizziness and stopped oral VPA intake ([1]; 1000 mg VPA daily oral): 2
- pain after intralesional application ([1]; after anesthesia wear off): no pain
- safety lab results (AST, ALT, LDH, complete blood count) ([1]; before start and every 30 days till end of treatment): in normal range
- response of lesions to treatment (adenomyosis lesions; 37 women with adenomyosis and a history of infertility and/or abortions): Some of the lesions disappeared completely and some of them were significantly reduced in size
- central vascularity of lesions (Colour Doppler) (adenomyosis lesions; [3]): absent
- reduction in size of lesion dimensions (ultrasound) (adenomyosis lesions; [3]): up to 2 fold
- progression of adenomyosis (adenomyosis lesions; monthly follow-up for three months after end of treatment): no progression of adenomyosis was observed
- Observed Prop. (Binomial Test, Pregnancy CODE 1.00) ([2]; Group 2, N 13 of 37, Test Prop. .8, Exact Sig. (1-tailed) .023): .4
- pregnancy terminations, or uterine obstetric complications during C-Section ([2]; in vivo): No pregnancy terminations, or uterine obstetric complications during C-Section
- pregnancy rate ([2]; new IVF cycle one month after End of Treatment, results up to date): 85%
- healthy full-term babies ([2]; results up to date): 10
